Assay results: paper PMC11374673, “Discovery of isoquinoline sulfonamides as allosteric gyrase inhibitors with activity against fluoroquinolone-resistant bacteria” (Nature Chemistry, 2024)
≈ marks a conversion by molar mass, not a printed value. Like-named read-outs stand apart in the source and are kept apart here. Each block holds one compound with its values, some of them ahead of it.

What was measured:
E. coli W3110 = experiment: MIC by broth microdilution; type: cell-based, Escherichia coli; settings: for antimicrobial activity: relative to parent compound
Method: (§1) MIC was determined by broth microdilution. Single-colony cultures were grown to exponential phase (OD600 of 0.5) aerobically at 37 °C. In case of strains from the Keio collection, 50 µg ml^−1 kanamycin was supplemented to the media to ascertain a homogeneous population. The bacterial suspensions were diluted 100-fold in CAMHB and 50 µl was added to a twofold serial dilution series of test compounds (50 µl per well) in polypropylene 96-well microtitre plates to reach a volume of 100 µl. The plates were sealed with breathable membranes and incubated overnight at 37 °C with constant shaking (600 r.p.m.).

E. coli BW25113 = experiment: Bacterial cytological profiling (BCP); type: cell-based, Escherichia coli; settings: BCP
Method: Overnight E. coli BW25113 cultures were diluted 1:100 in fresh LB medium in a 100 ml Erlenmeyer flask and incubated at 120 r.p.m. and 37 °C. When OD600 >0.2, the cultures were diluted to OD600 of 0.1 in fresh LB medium with a final volume of 200 µl in a 2 ml Eppendorf tube. The appropriate antibiotic or control treatment was applied and the samples were incubated at 200 r.p.m. and 30 °C for 2 h. Subsequently, 4,6-diamidino-2-phenylindole (DAPI) (2 µg ml^−1), FM4-64 (2 µg ml^−1) and SYTOX Green (0.5 µM) were added to reach the desired concentration and the samples were incubated a further 10 min. The samples were then centrifuged at 3,300g for 50 s and the pellets resuspended in half the original volume. From this suspension, 5 µl was spotted onto a 2.0% agarose pad for microscopy.
Microscopy was performed on a Zeiss Axio Observer Z1/7 inverted microscope.
For the qualitative assessment of the bacterial morphology, the acquired images were first pre-processed in ImageJ (v1.53m)[47]. Thereafter the brightness and contrast were adjusted to allow the clearest visual inspection of the particular phenotype. For the quantitative BCP, DIC images were first pre-processed and then a random forest classifier was trained with Illastik (v1.3.3)[48] to generate a segmented image. These binary masks were then combined together with the original DIC image and processed with the ImageJ plugin MicrobeJ (v 5.13l)[49]. MicrobeJ generated cell outlines and performed measurements on cell shape accordingly. The recorded cell outlines produced by MicrobeJ were exported and used as a guide to characterize the DNA shape within each bacterium using a custom-made ImageJ macro (Appendix II). DAPI and SYTOX Green intensity were measured on raw images in a similar manner. Then, by hand, polygons were drawn that excluded bacteria to determine background intensity. After background correction the intensity was standardized to the DMSO control within the same biological replicate. For PCA, the BCP assay was executed for three independently biological replicates. During each experiment, images were acquired until 24 or more bacteria in total had been observed. Following feature extraction for each replicate, principal component analysis was performed using GraphPad Prism (v9.0.0) using multiple variable analysis with standardized data. Principal components (PCs) were selected based on the per cent of total explained variance (minimum 80%).

K. pneumoniae ATCC 29665 = experiment: MIC by broth microdilution; type: cell-based, Klebsiella pneumoniae; settings: read-out: MIC K. pneumoniae ATCC 29665
Method: as §1

[1] = Escherichia coli, W3110, follow-up of the 12 library hits, read-out: MIC E. coli
[2] = Escherichia coli, W3110, WT, broth microdilution, read-out: MIC E. coli W3110
[3] = Klebsiella pneumoniae, ATCC29665, broth microdilution
[4] = WT, broth microdilution, read-out: MIC E. coli W3110

Structure (SMILES): Nc1ccc2c(N3CCC(COc4ccccn4)CC3)ncnc2n1 [AJ358]
MIC (E. coli W3110; [1]): > 50 µM

Structure (SMILES): CC1(C)S[C@@H]2[C@H](NC(=O)[C@H](N)c3ccccc3)C(=O)N2[C@H]1C(=O)O [AMP, ampicillin, reference compound]
DAPI circularity (E. coli BW25113): 0.173 ± 0.043
DAPI nucleoid area (E. coli BW25113): 9.445 ± 2.853
DAPI nucleoids (E. coli BW25113): 2.583 ± 0.910
DAPI perimeter (E. coli BW25113): 30.886 ± 6.792
DAPI roundness (E. coli BW25113): 0.108 ± 0.020
DAPI solidity (E. coli BW25113): 0.603 ± 0.036
DAPI total area (E. coli BW25113): 19.710 ± 4.300
DIC area (E. coli BW25113): 31.597 ± 3.284
DIC circularity (E. coli BW25113): 0.144 ± 0.015
DIC curvature (E. coli BW25113): 0.024 ± 0.004
DIC feret (E. coli BW25113): 26.883 ± 3.012
DIC length (E. coli BW25113): 27.774 ± 3.16
DIC perimeter (E. coli BW25113): 56.849 ± 6.297
DIC roundness (E. coli BW25113): 0.066 ± 0.008
DIC sinuosity (E. coli BW25113): 1.033 ± 0.002
DIC solidity (E. coli BW25113): 0.538 ± 0.044
DIC width (E. coli BW25113): 1.143 ± 0.051
Decondensation (E. coli BW25113): 0.619 ± 0.078
DIC angularity (E. coli BW25113; 2 h, AMP 12.5, RIF 12.5, TET 6.25, CIP 0.0625, LEI-801 6.25, LEI-800 6.25 µM, average ± SD of 3 replicates): 0.069 ± 0.009
DAPI intensity (E. coli BW25113; standardized to DMSO control): 1.490 ± 0.410
SYTOX Green intensity (E. coli BW25113; standardized to DMSO control): 1.901 ± 0.246

Structure (SMILES): Nc1ccccc1S(=O)(=O)NCCNC/C=C/c1ccc(-c2cccnc2)cc1 [BB064]
MIC (E. coli W3110; [1]): > 50 µM

Structure (SMILES): O=S(=O)(NCCNCCc1ccc(-c2cccnc2)cc1)c1cccc2cnccc12 [BB077]
MIC (E. coli W3110; [1]): > 50 µM

Structure (SMILES): Nc1cc2c(S(=O)(=O)NCCNCc3ccc(-c4cccnc4)cc3)cccc2cn1 [Compound 55]
MIC (E. coli W3110; [2]): > 50 µM
MIC (E. coli W3110; [4]): >50 µM
MIC (K. pneumoniae ATCC 29665; [3]): > 50 µM
MIC (K. pneumoniae ATCC 29665; broth microdilution): >50 µM

Structure (SMILES): Cc1ccc(-c2ccc(CNCCNS(=O)(=O)c3cccc4cnccc34)cc2)cc1 [Compound 62]
MIC (E. coli W3110; [2]): > 50 µM
MIC (E. coli W3110; [4]): >50 µM
MIC (K. pneumoniae ATCC 29665; [3]): > 50 µM
MIC (K. pneumoniae ATCC 29665; broth microdilution): >50 µM

Structure (SMILES): O=S(=O)(NCCNCc1ccc(-c2ccc(C(F)(F)F)cc2)cc1)c1cccc2cnccc12 [Compound 64]
MIC (E. coli W3110; [2]): > 50 µM
MIC (E. coli W3110; [4]): >50 µM
MIC (K. pneumoniae ATCC 29665; [3]): > 50 µM
MIC (K. pneumoniae ATCC 29665; broth microdilution): >50 µM

Structure (SMILES): Cc1cccc(-c2ccc(CNCCNS(=O)(=O)c3cccc4cnccc34)cc2)c1 [Compound 67]
MIC (E. coli W3110; [2]): > 50 µM
MIC (E. coli W3110; [4]): >50 µM
MIC (K. pneumoniae ATCC 29665; [3]): > 50 µM
MIC (K. pneumoniae ATCC 29665; broth microdilution): >50 µM

Further lines, with some results ahead:

MIC (E. coli W3110; [2]): 25 µM (≈ 10.4 µg/mL)
MIC (K. pneumoniae ATCC 29665; [3]): > 50 µM
MIC (K. pneumoniae ATCC 29665; broth microdilution): 50 µM (≈ 20.9 µg/mL)
Structure (SMILES): O=S(=O)(NCCNCc1ccc(-c2cccnc2)cc1)c1cccc2ccccc12 [Compound 47]
antimicrobial activity (E. coli W3110): fourfold reduced activity

MIC (E. coli W3110; [2]): > 50 µM
MIC (E. coli W3110; [4]): >50 µM
MIC (K. pneumoniae ATCC 29665; [3]): > 50 µM
MIC (K. pneumoniae ATCC 29665; broth microdilution): >50 µM
Structure (SMILES): O=S(=O)(NCCNCc1ccc(-c2cccnc2)cc1)c1ccccc1 [Compound 48]
antimicrobial activity (E. coli W3110): lost all activity

MIC (E. coli W3110; [2]): > 50 µM
MIC (E. coli W3110; [4]): >50 µM
MIC (K. pneumoniae ATCC 29665; [3]): > 50 µM
MIC (K. pneumoniae ATCC 29665; broth microdilution): >50 µM
Structure (SMILES): O=S(=O)(NCCNCc1ccc(-c2cccnc2)cc1)c1cccc2[nH]ncc12 [Compound 49]

MIC (E. coli W3110; [2]): > 50 µM
MIC (E. coli W3110; [4]): >50 µM
MIC (K. pneumoniae ATCC 29665; [3]): > 50 µM
MIC (K. pneumoniae ATCC 29665; broth microdilution): >50 µM
Structure (SMILES): O=S(=O)(NCCNCc1ccc(-c2cccnc2)cc1)c1ccc2cn[nH]c2c1 [Compound 50]

MIC (E. coli W3110; [2]): > 50 µM
MIC (E. coli W3110; [4]): >50 µM
MIC (K. pneumoniae ATCC 29665; [3]): > 50 µM
MIC (K. pneumoniae ATCC 29665; broth microdilution): >50 µM
Structure (SMILES): CNC(=O)c1ccc(S(=O)(=O)NCCNCc2ccc(-c3cccnc3)cc2)cn1 [Compound 51]

MIC (E. coli W3110; [2]): > 50 µM
MIC (E. coli W3110; [4]): >50 µM
MIC (K. pneumoniae ATCC 29665; [3]): > 50 µM
MIC (K. pneumoniae ATCC 29665; broth microdilution): >50 µM
Structure (SMILES): O=S(=O)(NCCNCc1ccc(-c2cccnc2)cc1)c1ccnc2[nH]ccc12 [Compound 54]

MIC (E. coli W3110; [2]): 12.5 µM (≈ 5.23 µg/mL)
MIC (K. pneumoniae ATCC 29665; [3]): 25 µM (≈ 10.5 µg/mL)
Structure (SMILES): O=S(=O)(NCCNCc1ccc(-c2ccncc2)cc1)c1cccc2cnccc12 [Compound 65]

MIC (E. coli W3110; [2]): 12.5 µM (≈ 5.44 µg/mL)
MIC (K. pneumoniae ATCC 29665; [3]): 25 µM (≈ 10.9 µg/mL)
Structure (SMILES): O=S(=O)(NCCNCc1ccc(-c2cccc(F)c2)cc1)c1cccc2cnccc12 [Compound 66]

MIC (E. coli W3110; [2]): 12.5 µM (≈ 5.53 µg/mL)
MIC (K. pneumoniae ATCC 29665; [3]): 25 µM (≈ 11.1 µg/mL)
Structure (SMILES): N#Cc1cccc(-c2ccc(CNCCNS(=O)(=O)c3cccc4cnccc34)cc2)c1 [Compound 68]

MIC (E. coli W3110; [2]): 25 µM (≈ 12.1 µg/mL)
MIC (K. pneumoniae ATCC 29665; [3]): > 50 µM
MIC (K. pneumoniae ATCC 29665; broth microdilution): >50 µM
Structure (SMILES): O=S(=O)(NCCNCc1ccc(-c2cccc(C(F)(F)F)c2)cc1)c1cccc2cnccc12 [Compound 69]
